Data as given in PubChem BioAssay AID328 (DTP/NCI, 2004).
Values joined by “and” are separate entries in the source; they are usually repeats but may differ in a detail not shown here. Equal entries are not always repeated. Inconclusive results and toxic doses are left out.

System: BDF1 mice, P388 leukemia ip, median survival T/C
Assay: NCI In Vivo Anticancer Drug Screen. Data for tumor model P388 Leukemia (intraperitoneal) in B6D2F1 (BDF1) mice
Conditions: endpoint: median survival time, higher = longer survival
Method in brief: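 Survival ratio, drug arm over vehicle arm, in mice with a transplanted tumour.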

[1] = dose: 100.0 mg/kg/injection, schedule: Q04DX003 (ip), vehicle: saline with Tween-80
[2] = dose: 200.0 mg/kg/injection, schedule: Q04DX003 (ip), vehicle: saline with Tween-80
[3] = dose: 400.0 mg/kg/injection, schedule: Q04DX003 (ip), vehicle: saline with Tween-80
[4] = dose: 100.0 mg/kg/injection, schedule: Q04DX003 (ip), vehicle: Klucel (hydroxypropylcellulose) (HPC)
[5] = dose: 200.0 mg/kg/injection, schedule: Q04DX003 (ip), vehicle: Klucel (hydroxypropylcellulose) (HPC)
[6] = dose: 400.0 mg/kg/injection, schedule: Q04DX003 (ip), vehicle: Klucel (hydroxypropylcellulose) (HPC)
[7] = dose: 50.0 mg/kg/injection, schedule: Q01DX009 (ip), vehicle: saline with Tween-80
[8] = dose: 100.0 mg/kg/injection, schedule: Q01DX009 (ip), vehicle: saline with Tween-80
[9] = dose: 200.0 mg/kg/injection, schedule: Q01DX009 (ip), vehicle: saline with Tween-80
[10] = dose: 100.0 mg/kg/injection, schedule: Q01DX009 (ip), vehicle: Klucel (hydroxypropylcellulose) (HPC)
[11] = dose: 400.0 mg/kg/injection, schedule: Q01DX009 (ip), vehicle: saline with Tween-80

SMILES: Cc1cc(C(C)(C)CC(C)(C)C)cc(O)c1O
- T/C (dose: 100.0 mg/kg/injection, schedule: Q04DX003 (ip), vehicle: other): 113 % of control
- T/C (dose: 200.0 mg/kg/injection, schedule: Q04DX003 (ip), vehicle: other): 109 % of control
- T/C (dose: 400.0 mg/kg/injection, schedule: Q04DX003 (ip), vehicle: other): 100 % of control

SMILES: C=Cn1cnc2c(N)ncnc21
- T/C [1]: 103 % of control
- T/C [2]: 113 % of control
- T/C [3]: 106 % of control

SMILES: COC(=O)CCC#CC#CCCC(=O)OC
- T/C [4]: 109 % of control
- T/C [5]: 104 % of control
- T/C [6]: 109 % of control

SMILES: CCOc1ccc(N2C(=O)CSC2=S)cc1
- T/C [7]: 104 % of control
- T/C (dose: 50.0 mg/kg/injection, schedule: Q04DX003 (ip), vehicle: saline with Tween-80): 110 % of control
- T/C [8]: 100 % of control
- T/C [1]: 100 % of control
- T/C [9]: 95 % of control
- T/C [2]: 100 % of control

SMILES: O=C(CCC(O)c1ccccc1)NCc1ccccc1 (stereo not given)
- T/C (dose: 100.0 mg/kg/injection, schedule: Q01DX001 (ip), vehicle: saline with Tween-80): 104 % of control
- T/C (dose: 200.0 mg/kg/injection, schedule: Q01DX001 (ip), vehicle: saline with Tween-80): 100 % of control
- T/C (dose: 400.0 mg/kg/injection, schedule: Q01DX001 (ip), vehicle: saline with Tween-80): 90 % of control

SMILES: CCCCC(=O)C1=C(O)C(Nc2ccccc2)=CC(=O)C1=Nc1ccccc1
- T/C [1]: 98 % of control
- T/C [2]: 103 % of control
- T/C [3]: 100 % of control

SMILES: O=c1[nH]cnc2c1nnn2C1OC(CO)C(O)C1O (stereo not given)
- T/C (dose: 50.0 mg/kg/injection, schedule: Q01DX006 (ip), vehicle: saline): 95 % of control
- T/C (dose: 130.0 mg/kg/injection, schedule: Q01DX006 (ip), vehicle: saline): 117 % of control

SMILES: O=NN(CCCl)C(=O)Nc1cccc(O)c1
- T/C (dose: 22.0 mg/kg/injection, schedule: Q04DX003 (ip), vehicle: Klucel (hydroxypropylcellulose) (HPC)): 190 % of control
- T/C (dose: 25.0 mg/kg/injection, schedule: Q01DX009 (ip), vehicle: Klucel (hydroxypropylcellulose) (HPC)): 215 % of control
- T/C (dose: 33.0 mg/kg/injection, schedule: Q04DX003 (ip), vehicle: Klucel (hydroxypropylcellulose) (HPC)): 186 % of control
- T/C (dose: 35.0 mg/kg/injection, schedule: Q01DX009 (ip), vehicle: Klucel (hydroxypropylcellulose) (HPC)): 100 % of control
- T/C (dose: 50.0 mg/kg/injection, schedule: Q01DX009 (ip), vehicle: Klucel (hydroxypropylcellulose) (HPC)): 88 % of control and 215 % of control
- T/C (dose: 50.0 mg/kg/injection, schedule: Q04DX003 (ip), vehicle: Klucel (hydroxypropylcellulose) (HPC)): 186 % of control
- T/C (dose: 66.0 mg/kg/injection, schedule: Q04DX003 (ip), vehicle: saline): 222 % of control
- T/C (dose: 75.0 mg/kg/injection, schedule: Q01DX009 (ip), vehicle: Klucel (hydroxypropylcellulose) (HPC)): 158 % of control
- T/C [10]: 105 % of control
- T/C [4]: 222 % of control
- T/C (dose: 100.0 mg/kg/injection, schedule: Q04DX003 (ip), vehicle: saline): 272 % of control

SMILES: COc1ccc(OC)c2c1C(SC)C(=O)N2C (stereo not given)
- T/C (dose: 50.0 mg/kg/injection, schedule: Q04DX002 (ip), vehicle: saline with Tween-80): 100 % of control
- T/C (dose: 100.0 mg/kg/injection, schedule: Q04DX002 (ip), vehicle: saline with Tween-80): 100 % of control
- T/C (dose: 200.0 mg/kg/injection, schedule: Q04DX002 (ip), vehicle: saline with Tween-80): 107 % of control

SMILES: CC1(C)C=C(C(Br)c2cccc(Cl)c2)C(=O)c2ccccc21 (stereo not given)
- T/C [10]: 105 % of control
- T/C [4]: 104 % of control
- T/C (dose: 200.0 mg/kg/injection, schedule: Q01DX009 (ip), vehicle: Klucel (hydroxypropylcellulose) (HPC)): 120 % of control
- T/C [5]: 104 % of control
- T/C (dose: 400.0 mg/kg/injection, schedule: Q01DX009 (ip), vehicle: Klucel (hydroxypropylcellulose) (HPC)): 100 % of control
- T/C [6]: 95 % of control

SMILES: S=P(S)(c1ccccc1)c1ccccc1
- T/C (dose: 80.5 mg/kg/injection, schedule: Q01DX009 (ip), vehicle: saline): 90 % of control
- T/C (dose: 106.26 mg/kg/injection, schedule: Q01DX009 (ip), vehicle: saline): 116 % of control
- T/C (dose: 241.5 mg/kg/injection, schedule: Q01DX009 (ip), vehicle: saline): 95 % of control

SMILES: O=S(=O)(O)SCCNCCCCCC1CCCCC1
- T/C (dose: 0.75 mg/kg/injection, schedule: Q01DX009 (ip), vehicle: saline): 100 % of control
- T/C (dose: 1.5 mg/kg/injection, schedule: Q01DX009 (ip), vehicle: saline): 100 % of control
- T/C (dose: 3.0 mg/kg/injection, schedule: Q01DX009 (ip), vehicle: Klucel (hydroxypropylcellulose) (HPC)): 100 % of control
- T/C (dose: 3.0 mg/kg/injection, schedule: Q01DX009 (ip), vehicle: saline): 100 % of control
- T/C (dose: 6.0 mg/kg/injection, schedule: Q01DX009 (ip), vehicle: Klucel (hydroxypropylcellulose) (HPC)): 115 % of control
- T/C (dose: 6.0 mg/kg/injection, schedule: Q01DX009 (ip), vehicle: saline): 105 % of control

SMILES: CCOC(=O)C(C(C)=O)C(c1ccc([N+](=O)[O-])cc1)C(C(C)=O)C(=O)OCC (stereo not given)
- T/C (dose: 0.78 mg/kg/injection, schedule: Q04DX003 (ip), vehicle: saline): 117 % of control
- T/C (dose: 1.56 mg/kg/injection, schedule: Q04DX003 (ip), vehicle: saline): 114 % of control
- T/C (dose: 3.12 mg/kg/injection, schedule: Q01DX009 (ip), vehicle: saline): 108 % of control
- T/C (dose: 3.12 mg/kg/injection, schedule: Q04DX003 (ip), vehicle: saline): 104 % of control
- T/C (dose: 6.25 mg/kg/injection, schedule: Q01DX009 (ip), vehicle: saline): 106 % of control
- T/C (dose: 6.25 mg/kg/injection, schedule: Q04DX003 (ip), vehicle: saline): 99 % of control
- T/C (dose: 12.5 mg/kg/injection, schedule: Q01DX009 (ip), vehicle: saline): 100 % of control
- T/C (dose: 12.5 mg/kg/injection, schedule: Q04DX003 (ip), vehicle: saline): 111 % of control
- T/C (dose: 25.0 mg/kg/injection, schedule: Q01DX009 (ip), vehicle: saline): 92 % of control
- T/C (dose: 25.0 mg/kg/injection, schedule: Q04DX003 (ip), vehicle: saline): 99 % of control
- T/C (dose: 50.0 mg/kg/injection, schedule: Q01DX009 (ip), vehicle: saline): 89 % of control
- T/C (dose: 100.0 mg/kg/injection, schedule: Q01DX009 (ip), vehicle: saline): 93 % of control

SMILES: CCCCC(CCC)(CCN)CCCC
- T/C (dose: 1.0 mg/kg/injection, schedule: Q01DX009 (ip), vehicle: Klucel (hydroxypropylcellulose) (HPC)): 100 % of control
- T/C (dose: 2.0 mg/kg/injection, schedule: Q01DX009 (ip), vehicle: Klucel (hydroxypropylcellulose) (HPC)): 110 % of control
- T/C (dose: 4.0 mg/kg/injection, schedule: Q01DX009 (ip), vehicle: Klucel (hydroxypropylcellulose) (HPC)): 105 % of control
- T/C (dose: 8.0 mg/kg/injection, schedule: Q01DX009 (ip), vehicle: Klucel (hydroxypropylcellulose) (HPC)): 115 % of control

SMILES: CC1(O)c2ccccc2-c2nc3ccccc3nc21 (stereo not given)
- T/C [8]: 104 % of control
- T/C [9]: 100 % of control
- T/C [11]: 118 % of control

SMILES: COc1cc2cc(c1Cl)NC(=O)/C=C/C(C)=C/[C@H](C)[C@@H]1C[C@@](O)(NC(=O)O1)[C@H](OC)C=C/C=C(\C)C2
- T/C (dose: 1.6 micrograms/kg/injection, schedule: Q01DX009 (ip), vehicle: saline + alcohol): 104 % of control
- T/C (dose: 3.1 micrograms/kg/injection, schedule: Q01DX009 (ip), vehicle: saline + alcohol): 95 % of control
- T/C (dose: 6.2 micrograms/kg/injection, schedule: Q01DX009 (ip), vehicle: saline + alcohol): 87 % of control
- T/C (dose: 25.0 micrograms/kg/injection, schedule: Q01DX009 (ip), vehicle: saline + alcohol): 108 % of control
- T/C (dose: 50.0 micrograms/kg/injection, schedule: Q01DX009 (ip), vehicle: saline + alcohol): 120 % of control
- T/C (dose: 100.0 micrograms/kg/injection, schedule: Q01DX009 (ip), vehicle: saline + alcohol): 120 % of control
- T/C (dose: 200.0 micrograms/kg/injection, schedule: Q01DX009 (ip), vehicle: saline + alcohol): 104 % of control

SMILES: O=CN(SSN(C=O)C1CCCCC1)C1CCCCC1
- T/C [7]: 108 % of control and 116 % of control
- T/C [8]: 122 % of control

SMILES: COc1ccc(C2C=CC(c3ccccc3)C(c3ccccc3)C2[N+](=O)[O-])cc1OC (stereo not given)
- T/C [1]: 100 % of control
- T/C [2]: 100 % of control
- T/C [3]: 90 % of control

SMILES: N#CCC(=O)Cc1ccccc1[N+](=O)[O-]
- T/C (dose: 400.0 mg/kg/injection, schedule: Q01DX001 (ip), vehicle: saline sonified): 100 % of control

SMILES: Cc1cc(C)c(-n2c(-c3ccc(Cl)cc3)nnc2-c2ccc(Br)cc2)c(C)c1
- T/C [4]: 104 % of control
- T/C [5]: 100 % of control
- T/C [6]: 90 % of control

SMILES: O=C(CCC(=O)c1cccc([N+](=O)[O-])c1)NNc1ccc([N+](=O)[O-])cc1[N+](=O)[O-]
- T/C [8]: 104 % of control
- T/C [9]: 90 % of control
- T/C [11]: 95 % of control
